Experimental data reported in ChEMBL document CHEMBL1152034, “Solid phase synthesis of phosphinic acid endothelin converting enzyme inhibitors” (Bioorg Med Chem Lett, 1996).

Key:
[1] = target: T1, Endothelin-converting enzyme 1 (Homo sapiens, UniProt P42892); experiment: Inhibition of endothelin-converting enzyme in human umbilical vein endothelial cells; format: cell-based, Endothelial cell
T1 sequence (P42892 whole entry): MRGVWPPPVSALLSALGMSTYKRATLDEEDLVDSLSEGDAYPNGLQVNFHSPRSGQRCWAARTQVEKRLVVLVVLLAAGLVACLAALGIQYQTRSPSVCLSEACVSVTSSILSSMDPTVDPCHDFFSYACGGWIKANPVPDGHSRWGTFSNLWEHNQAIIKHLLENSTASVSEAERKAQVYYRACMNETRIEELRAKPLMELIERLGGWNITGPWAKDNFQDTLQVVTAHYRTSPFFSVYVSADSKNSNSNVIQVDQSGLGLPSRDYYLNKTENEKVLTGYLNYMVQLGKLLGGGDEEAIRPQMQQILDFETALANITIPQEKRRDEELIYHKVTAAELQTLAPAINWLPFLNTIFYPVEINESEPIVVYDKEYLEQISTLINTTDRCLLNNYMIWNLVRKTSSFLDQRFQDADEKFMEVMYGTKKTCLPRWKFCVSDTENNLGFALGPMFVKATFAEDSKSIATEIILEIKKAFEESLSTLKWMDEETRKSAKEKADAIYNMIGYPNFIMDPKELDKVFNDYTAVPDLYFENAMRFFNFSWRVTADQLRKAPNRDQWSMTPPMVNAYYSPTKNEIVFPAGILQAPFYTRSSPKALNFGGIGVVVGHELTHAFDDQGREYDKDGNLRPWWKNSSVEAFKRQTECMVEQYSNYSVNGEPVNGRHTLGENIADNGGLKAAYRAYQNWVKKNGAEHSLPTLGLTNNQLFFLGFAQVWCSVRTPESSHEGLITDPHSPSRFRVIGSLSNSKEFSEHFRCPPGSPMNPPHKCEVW

[2] = target: Neprilysin (Homo sapiens, UniProt P08473); experiment: Inhibition of neutral endopeptidase in human umbilical vein endothelial cells; format: cell-based, Endothelial cell
Chain of Neprilysin (P08473 whole entry): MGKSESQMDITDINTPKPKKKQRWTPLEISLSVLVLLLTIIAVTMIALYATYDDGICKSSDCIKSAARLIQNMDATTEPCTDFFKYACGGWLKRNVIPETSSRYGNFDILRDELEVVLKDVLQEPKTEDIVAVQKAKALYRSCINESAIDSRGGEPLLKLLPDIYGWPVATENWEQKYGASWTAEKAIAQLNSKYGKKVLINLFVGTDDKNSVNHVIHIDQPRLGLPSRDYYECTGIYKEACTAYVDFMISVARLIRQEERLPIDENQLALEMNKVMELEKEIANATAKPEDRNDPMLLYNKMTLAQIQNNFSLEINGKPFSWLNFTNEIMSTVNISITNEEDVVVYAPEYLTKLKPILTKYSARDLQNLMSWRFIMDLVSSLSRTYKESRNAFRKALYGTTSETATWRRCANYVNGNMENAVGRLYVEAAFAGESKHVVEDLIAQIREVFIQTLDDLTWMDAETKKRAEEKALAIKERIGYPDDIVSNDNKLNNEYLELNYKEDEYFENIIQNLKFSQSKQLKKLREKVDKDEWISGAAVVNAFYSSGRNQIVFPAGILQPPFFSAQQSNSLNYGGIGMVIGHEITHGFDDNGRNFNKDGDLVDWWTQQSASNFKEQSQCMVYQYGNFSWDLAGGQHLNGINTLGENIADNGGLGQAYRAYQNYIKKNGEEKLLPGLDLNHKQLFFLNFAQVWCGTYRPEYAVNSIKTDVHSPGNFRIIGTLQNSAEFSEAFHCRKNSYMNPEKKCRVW

Structure (SMILES)	IC50 [1] [µM]	IC50 [2] [µM]	IC50 ([1]; endothelial cell) [µM]	IC50 ([2]; endothelial cell) [µM]
O=C(N[C@@H](Cc1ccccc1)P(=O)(O)CC(Cc1ccccc1)C(=O)N[C@H](Cc1ccccc1)C(=O)O)OCc1ccccc1 (stereo partly drawn)	> 100	> 60	–	–
O=C(O)[C@H](Cc1c[nH]c2ccccc12)NC(=O)[C@H](Cc1ccccc1)NP(=O)(O)CCCCc1ccccc1	0.4	–	–	–
CC(C)[C@H](NC(=O)C(Cc1ccccc1)CP(=O)(O)[C@H](Cc1ccccc1)NC(=O)OCc1ccccc1)C(N)=O (stereo partly drawn)	20	–	–	–
CCC(C)C(NC(=O)C(Cc1ccccc1)CP(=O)(O)[C@H](Cc1ccccc1)NC(=O)OCc1ccccc1)C(=O)O (mixture of isomers)	4	–	–	–
CC(C)[C@@H](NC(=O)C(Cc1ccccc1)CP(=O)(O)[C@H](Cc1ccccc1)NC(=O)OCc1ccccc1)C(=O)O (mixture of isomers)	60	–	–	–
O=C(N[C@@H](Cc1ccccc1)P(=O)(O)CC(Cc1ccccc1)C(=O)NC(Cc1c[nH]cn1)C(=O)O)OCc1ccccc1 (mixture of isomers)	20	10	–	–
CC(C)C(NC(=O)C(Cc1ccccc1)CP(=O)(O)[C@H](Cc1ccccc1)NC(=O)OCc1ccccc1)C(=O)O (mixture of isomers)	1.7	–	–	–
O=C(N[C@@H](Cc1ccccc1)P(=O)(O)CC(Cc1ccccc1)C(=O)NC(Cc1ccc(O)cc1)C(=O)O)OCc1ccccc1 (mixture of isomers)	12	2.3	–	–
O=C(N[C@@H](Cc1ccccc1)P(=O)(O)CC(Cc1ccccc1)C(=O)NC(Cc1ccccc1)C(=O)O)OCc1ccccc1 (mixture of isomers)	10	0.8	–	–
O=C(N[C@@H](Cc1ccccc1)P(=O)(O)CC(Cc1ccccc1)C(=O)NC(Cc1c[nH]c2ccccc12)C(=O)O)OCc1ccccc1 (mixture of isomers)	1.1	1.4	–	–
O=C(N[C@@H](Cc1ccccc1)P(=O)(O)CC(Cc1ccccc1)C(=O)NC(Cc1ccc(O)cc1)C(=O)O)OCc1ccccc1 (single isomer, unassigned)	7	1	–	–
CC(C)[C@@H](NC(=O)C(Cc1ccccc1)CP(=O)(O)[C@H](Cc1ccccc1)NC(=O)OCc1ccccc1)C(=O)O (stereo in doubt)	> 100	–	–	–
CC(C)C(NC(=O)C(Cc1ccccc1)CP(=O)(O)[C@H](Cc1ccccc1)NC(=O)OCc1ccccc1)C(=O)O (stereo in doubt)	80	–	–	–
O=C(N[C@@H](Cc1ccccc1)P(=O)(O)CC(Cc1ccccc1)C(=O)NC(Cc1c[nH]c2ccccc12)C(=O)O)OCc1ccccc1 (stereo in doubt)	5.8	10	–	–

Results, then the compound that gave them:

IC50 [1] [µM]	IC50 [2] [µM]	IC50 ([1]; endothelial cell) [µM]	IC50 ([2]; endothelial cell) [µM]	Structure (SMILES)
80	0.9	–	–	O=C(O)CNC(=O)C(Cc1ccccc1)CP(=O)(O)[C@H](Cc1ccccc1)NC(=O)OCc1ccccc1 (stereo partly drawn)
4.3	0.8	–	–	N=C(N)NCCCC(NC(=O)C(Cc1ccccc1)CP(=O)(O)[C@H](Cc1ccccc1)NC(=O)OCc1ccccc1)C(=O)O (mixture of isomers)
25	–	–	–	O=C(O)CCC(NC(=O)C(Cc1ccccc1)CP(=O)(O)[C@H](Cc1ccccc1)NC(=O)OCc1ccccc1)C(=O)O (mixture of isomers)
50	2.3	–	–	O=C(O)CCNC(=O)C(Cc1ccccc1)CP(=O)(O)[C@H](Cc1ccccc1)NC(=O)OCc1ccccc1 (mixture of isomers)
30	–	–	–	O=C(O)CC(NC(=O)C(Cc1ccccc1)CP(=O)(O)[C@H](Cc1ccccc1)NC(=O)OCc1ccccc1)C(=O)O (mixture of isomers)
30	> 100	–	–	NCCCCC(NC(=O)C(Cc1ccccc1)CP(=O)(O)[C@H](Cc1ccccc1)NC(=O)OCc1ccccc1)C(=O)O (mixture of isomers)
8	0.3	–	–	CC(NC(=O)C(Cc1ccccc1)CP(=O)(O)[C@H](Cc1ccccc1)NC(=O)OCc1ccccc1)C(=O)O (mixture of isomers)
20	10	–	–	NC(=O)CC(NC(=O)C(Cc1ccccc1)CP(=O)(O)[C@H](Cc1ccccc1)NC(=O)OCc1ccccc1)C(=O)O (mixture of isomers)
6	15	–	–	NC(=O)CCC(NC(=O)C(Cc1ccccc1)CP(=O)(O)[C@H](Cc1ccccc1)NC(=O)OCc1ccccc1)C(=O)O (mixture of isomers)
> 100	–	–	–	O=C(O)CC[C@@H](NC(=O)C(Cc1ccccc1)CP(=O)(O)[C@H](Cc1ccccc1)NC(=O)OCc1ccccc1)C(=O)O (mixture of isomers)
> 100	> 60	–	–	N=C(N)NCCC[C@@H](NC(=O)C(Cc1ccccc1)CP(=O)(O)[C@H](Cc1ccccc1)NC(=O)OCc1ccccc1)C(=O)O (mixture of isomers)
12	–	–	–	CCCCC(NC(=O)C(Cc1ccccc1)CP(=O)(O)[C@H](Cc1ccccc1)NC(=O)OCc1ccccc1)C(=O)O (mixture of isomers)
5	10	–	–	CC(O)C(NC(=O)C(Cc1ccccc1)CP(=O)(O)[C@H](Cc1ccccc1)NC(=O)OCc1ccccc1)C(=O)O (mixture of isomers)
23	–	–	–	CC(C)CC(NC(=O)C(Cc1ccccc1)CP(=O)(O)[C@H](Cc1ccccc1)NC(=O)OCc1ccccc1)C(=O)O (mixture of isomers; form 1)
20	–	–	–	CC(C)CC(NC(=O)C(Cc1ccccc1)CP(=O)(O)[C@H](Cc1ccccc1)NC(=O)OCc1ccccc1)C(=O)O (mixture of isomers; form 2)
–	50	> 100	–	C[C@H](O)[C@@H](NC(=O)C(Cc1ccccc1)CP(=O)(O)[C@H](Cc1ccccc1)NC(=O)OCc1ccccc1)C(=O)O (single isomer, unassigned)
> 100	> 100	–	–	C[C@H](O)[C@@H](NC(=O)C(Cc1ccccc1)CP(=O)(O)[C@H](Cc1ccccc1)NC(=O)OCc1ccccc1)C(=O)O (stereo in doubt)
60	–	–	> 100	NCCCCC(NC(=O)C(Cc1ccccc1)CP(=O)(O)[C@H](Cc1ccccc1)NC(=O)OCc1ccccc1)C(=O)O (stereo in doubt)
> 100	> 100	–	–	NC(=O)CCC(NC(=O)C(Cc1ccccc1)CP(=O)(O)[C@H](Cc1ccccc1)NC(=O)OCc1ccccc1)C(=O)O (stereo in doubt)
